Measurements from patent publication US20060140970A1, “Proteic binding partners of TCTP and methods of modulating tumor reversion or cell apoptosis” (priority 2003, published 2006).

Key:
[1] = tested on: OP18 phosphorylation in 293 HEK cells; assay: OP18 phosphorylation state, native PAGE and immunoblot; format: cell-based; conditions: nocodazole 250 ng/ml, control cells
Method: Transfection, preparation of native OP18 enriched extracts, and analysis of OP18 phosphorylation levels. 293 T cells were transfected by the standard calcium phosphate method, with the following constructs: pEYFP (Clontech, BD) (negative control), pEYFP-TCTP wide type (WT) or the mutant pEYFP-TCTP S46A/S64A. Twenty four hours after the transfection, the cells were treated with nocodazole (250 ng/ml) for 0 hour, 1 hour, 2 hours, 4 hours and 8 hours, and rinsed twice in PBS. The pellets were lyzed with 3-5 volumes of lysis buffer (50 mM Tris-HCl, pH 7.5, 250 mM NaCl, 10 mM EDTA, 1% Nonidet P-40, protease inhibitors cocktail and phosphatases inhibitors (10 mM sodium orthovanadate, 10 mM natrium fluoride (NAF)) on ice for 20 minutes, and centrifuged for 10 minutes at 14,000 rpm at 4° C. The supernatants were carefully removed and stored on ice while measuring their concentration of proteins by spectrophotometry at 595 nm (Bradford method). To enrich the concentration of OP18 in the extracts, 1.2 mg of each total extract was boiled at 75° C. for 7 minutes, put on ice for 1 minute, and centrifuged for 10 minutes at 14,000 rpm at 4° C. Then, the supernatants were precipitated in 5-6 volumes of 1% sucrose in methanol O/N at −20° C. […]

293T HEK cells = assay: Polymerized tubulin fraction in cells, western blot anti-α-tubulin; format: cell-based
Method: […] The treated cells were rinsed twice in PBS, lyzed on plates with 250 μl of a microtubule-stabilizing buffer (20 mM Tris-HCl, pH 6.8, 140 mM NaCl, 0.5 % Nonidet P-40, 1 mM MgCl2, 2 mM EGTA, 4 μg/ml Taxol, protease inhibitors cocktail), scraped and transferred into a 1.5 ml microcentrifuge tube. Each plate was rinsed with a second 250 μl of lysis buffer, and the cell lysates were pooled. The lysis occurred for 20 minutes at room temperature. The microcentrifuge tubes containing 500 μl of lyzed cells contents were briefly mixed and then centrifuged at 14,000 rpm for 10 minutes at 4° C. Supernatants containing soluble tubulin were carefully separated from pellets containing polymerized tubulin and placed in a separate tube. The pellets were quickly rinsed with additional 20 μl of lysis buffer and resuspended in 125 μl of water. […] The concentration of proteins in the supernatants was measured by spectrophotometry at 595 nm (Bradford method). Using these soluble tubulin concentration values, 60 μg of the polymerized tubulin fractions were run on a 10% acrylamide gel (SDS-PAGE system) and transferred on a nitrocellulose membrane (Biorad) that was incubated with an anti-a-tubulin (Sigma) diluted 1/2000. Since TCTP overexpression lead to a decrease of OP18 phosphorylation, and consequently, contribute to the maintenance of OP18 in its active state, it was hypothesized that TCTP overexpression would induce the microtubule depolymerization. To confirm this hypothesis, an assay that enables the isolation and monitoring of the tubulin in a microtubule polymerized state only, but not in a free soluble state, was performed. Briefly, after lysis of cells in a hypotonic buffer containing low dose of Taxol (a microtubule stabilizing agent) and a centrifugation, the polymerized fraction of tubulin was preserved and purified. Then, the amount of polymerized tubulin in cells was monitored by western blot using an anti-α-tubulin antibody.

## COC(=O)Nc1nc2ccc(C(=O)c3cccs3)cc2[nH]1 [nocodazole]
[1]
  time from which OP18 with three (3-P) and four (4-P) phosphorylated sites is detectable: ≥ 2 h
293T HEK cells; 16 hours of treatment, compared to untreated cells
  amount of polymerized tubulin: no polymerized tubulin was present
293T HEK cells; nocodazole 250 ng/ml, increasing time, transfected 293T HEK cells
  tubulin polymerization during nocodazole treatment: decreased proportionally to the time length of treatment
